According to US20190134153A1, “IMMUNOMODULATORY EFFECT OF INHALED KINASE INHIBITOR PEPTIDES IN LUNG” (MOERAE MATRIX, INC., priority 2017, published 2019):
Where a SMILES comes first, the peptide text is derived from it.

Assays:
[1] = in vitro; conditions: cells (cell type not stated)
[2] = inhaled, even at high doses
[3] = following repeat dosing
[4] = LPS challenge study in healthy smokers: safety and tolerability (adverse events)
Method: Period/sequence effects were analyzed to determine potential impact of treatment order.
First multi-day dosing in humans employed a single low dose of 2.25 mg, extrapolated from animal studies (37.5 μg/kg, based on 60 kg human).
The primary study endpoints were safety and tolerability following first repeat administration and induced sputum inflammatory biomarkers interleukin-6 (IL-6), interleukin-1β (IL-1β), interleukin-8 (IL-8) and tumor necrosis factor alpha (TNFα) following inhaled LPS (30 μg) challenge, day 5.

[5] = tested on: Rat bowel anastomosis; conditions: vs placebo; cited from earlier work
[6] = molecular target: CaMKIV (Homo sapiens, UniProt Q16566); conditions: 1 μM; cited from earlier work
Chain of CaMKIV (Q16566 whole entry, species assumed): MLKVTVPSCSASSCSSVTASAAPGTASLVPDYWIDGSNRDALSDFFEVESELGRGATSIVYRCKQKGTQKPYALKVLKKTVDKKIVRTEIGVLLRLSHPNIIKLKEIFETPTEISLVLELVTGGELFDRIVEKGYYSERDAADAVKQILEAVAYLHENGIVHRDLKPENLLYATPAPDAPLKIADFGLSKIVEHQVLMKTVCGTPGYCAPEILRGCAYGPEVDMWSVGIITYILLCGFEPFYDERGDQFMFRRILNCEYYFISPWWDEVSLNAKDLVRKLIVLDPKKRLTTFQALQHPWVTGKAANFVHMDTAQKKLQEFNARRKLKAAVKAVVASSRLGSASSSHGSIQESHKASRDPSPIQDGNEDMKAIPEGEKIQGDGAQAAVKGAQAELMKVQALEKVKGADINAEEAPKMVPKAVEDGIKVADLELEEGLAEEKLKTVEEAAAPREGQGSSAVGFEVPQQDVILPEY

[7] = tested on: PKA; conditions: 1 μM; cited from earlier work
[8] = tested on: Ca2+/calmodulin-dependent protein kinase II (CaMKII); conditions: cited from earlier work
[9] = tested on: PKC; conditions: 1 μM; cited from earlier work

Compound: CC(C)C[C@H](NC(=O)[C@H](C)NC(=O)[C@H](CCCCN)NC(=O)[C@H](C)NC(=O)[C@H](CCCNC(=N)N)NC(=O)[C@H](C)NC(=O)[C@H](CCC(N)=O)NC(=O)[C@H](CCCNC(=N)N)NC(=O)[C@H](C)NC(=O)[C@H](C)NC(=O)[C@H](C)NC(=O)[C@H](CCCNC(=N)N)NC(=O)[C@H](C)NC(=O)[C@@H](N)Cc1ccc(O)cc1)C(=O)N[C@@H](C)C(=O)N[C@@H](CCCNC(=N)N)C(=O)N[C@@H](CCC(N)=O)C(=O)N[C@@H](CC(C)C)C(=O)NCC(=O)N[C@H](C(=O)N[C@@H](C)C(=O)N[C@@H](C)C(=O)O)C(C)C [MMI-0100] (H-YARAAARQARAKALARQLGVAA-OH)
- half-life [1]: ~77 h
- MMI-0100 plasma concentrations [2]: little to no detectable
- effect on lung function (FEV1) [3]: no deleterious effect
- Any AE leading to treatment D/C, Patients % ([4]; N = 22): (0%)
- Any AE leading to treatment D/C, Patients N ([4]; N = 22): 0
- Any TEAE, Patients % ([4]; N = 22): (40.9%)
- Any TEAE, Patients N ([4]; N = 22): 9
- Deaths, Patients % ([4]; N = 22): (0%)
- Deaths, Patients N ([4]; N = 22): 0
- Mild TEAE, Patients % ([4]; N = 22): (27.3%)
- Mild TEAE, Patients N ([4]; N = 22): 6
- Moderate TEAE, Patients % ([4]; N = 22): (18.2%)
- Moderate TEAE, Patients N ([4]; N = 22): 4
- Severe or life threatening TEAE, Patients % ([4]; N = 22): (0%)
- Severe or life threatening TEAE, Patients N ([4]; N = 22): 0
- Any serious treatment emergent adverse event, % of subjects ([4]; Safety Population N = 22): (0.5%)
- Any serious treatment emergent adverse event, subjects ([4]; Safety Population N = 22): 0
- Concussion (serious TEAE), % of subjects ([4]; Safety Population N = 22): (0%)
- Concussion (serious TEAE), subjects ([4]; Safety Population N = 22): 0
- Injury, poisoning and procedural complications (serious TEAE), % of subjects ([4]; Safety Population N = 22): (0%)
- Injury, poisoning and procedural complications (serious TEAE), subjects ([4]; Safety Population N = 22): 0
- Joint dislocation (serious TEAE), % of subjects ([4]; Safety Population N = 22): (0%)
- Joint dislocation (serious TEAE), subjects ([4]; Safety Population N = 22): 0
- Number of serious treatment emergent adverse events ([4]; Safety Population N = 22): 0
- safety and tolerability ([4]; first repeat administration, 2.25 mg inhaled, 5 days): safe and well-tolerated
- healing (integrity of anastomosis) [5]: healing (integrity of anastomosis) unaffected

Compound: autocamtide-2 related inhibitory peptide [AIP]
- CaMKIV activity [6]: not affected
- PKA activity [7]: not affected
- CaMKII activity ([8]; 1 μM): inhibited completely
- IC50 ([8]; CaMKII): 0.1 µM
- PKC activity [9]: not affected
